Data on 22 compounds can be found in ChEMBL document CHEMBL1127373 (J Med Chem, 1994).

Molecules are shown by their SMILES.

In the assay the target is Neuronal acetylcholine receptor. The assay is described as follows: Tested for the binding affinity against neuronal nicotinic acetylcholine receptors from whole rat brain.
Take `CN1C[C@@H](CF)C[C@H]1c1cccnc1`: the Ki (commonly the dissociation constant of the complex between target and ligand, obtained from inhibition or displacement) turned out to be 11.1 nM.
Regarding `CN1C[C@@H](CO)C[C@H]1c1cccnc1`, the affinity corresponds to a Ki of 158 nM.
`C[C@H]1CC[C@@H](c2cccnc2)N1C`: the inhibition constant (Ki) is 34.9 nM.
`CN1C[C@H](CO)C[C@H]1c1cccnc1` returned a Ki of 294 nM.
For `CC1CN(C)[C@H](c2cccnc2)C1C` (some centres not stated), the Ki worked out at 96.4 nM.
The figure for `CN1[C@@H](c2ccccc2)CC[C@H]1c1cccnc1` is 1240 nM; for `CN1C[C@@H](OS(C)(=O)=O)C[C@H]1c1cccnc1` it is 364 nM.
`COCC1CCN(C)[C@@H]1c1cccnc1` (some centres not stated) had an inhibition constant Ki of 2030 nM.
The result for `C[C@@H]1CC[C@@H](c2cccnc2)N1C` reads 1210 nM.
As for `COC[C@H]1C[C@@H](c2cccnc2)N(C)C1`, the Ki worked out at 510 nM.
With `CSC[C@H]1C[C@@H](c2cccnc2)N(C)C1`, affinity was put at a Ki of 493 nM.
`CN1C[C@H](C#N)C[C@H]1c1cccnc1` yielded a Ki of 82 nM.
The compound `CC(=O)O[C@H]1C[C@@H](c2cccnc2)N(C)C1` registered a Ki of 103 nM.
With `CN1C[C@@H](O)C[C@H]1c1cccnc1`, the Ki was determined as 27.6 nM.
For `CC[C@H]1C[C@@H](c2cccnc2)N(C)C1`, the affinity, expressed as Ki, was 50.2 nM.
In turn, `CN1C[C@@H](Cc2ccccc2)C[C@H]1c1cccnc1` returned an inhibition constant Ki of 119 nM.
The result for `CO[C@H]1C[C@@H](c2cccnc2)N(C)C1` reads 36.6 nM.
The result for `CN1CCC(CO)[C@H]1c1cccnc1` (some centres not stated) reads 619 nM; that for `CN1C[C@@H](CC#N)C[C@H]1c1cccnc1`, 52 nM; that for `CN1[C@H](c2ccccc2)CC[C@H]1c1cccnc1`, 3350 nM.
In the case of `CN1CCC(CF)[C@H]1c1cccnc1` (some centres not stated), the Ki amounted to 98.5 nM.
In turn, `CCCC[C@@H]1CC[C@@H](c2cccnc2)N1C` gave a Ki of 1380 nM.
